Data set [1] has as its system Thlaspi arvense. Put plainly: Herbicidal activity against Thlaspi arvense in winter wheat crop field at 900 g/ha applied at the end of tillering stage of crop measured at 4 weeks post-drug dosage. The format is functional.
Data set [2] relates to Matricaria. Kind of data set: Herbicidal activity against Matricaria inodora in winter wheat crop field at 900 g/ha applied at the end of tillering stage of crop measured at 4 weeks post-drug dosage. It counts as functional.
Data set [3] deals with Brassica napus. Kind of data set: Herbicidal activity against Brassica napus (oilseed rape) in winter wheat crop field at 900 g/ha applied at the end of tillering stage of crop measured at 4 weeks post-drug dosage. It counts as functional.
In data set [4] the test system is Consolida regalis. Kind of data set: Herbicidal activity against Consolida regalis in winter wheat crop field at 900 g/ha applied at the end of tillering stage of crop measured at 4 weeks post-drug dosage. The format is functional.
For data set [5], the system named is Triticum aestivum. Kind of data set: Increase in winter Triticum aestivum (wheat) crop yield at 900 g/ha applied at the end of tillering stage of crop measured at 4 weeks post-drug dosage (reference value: 7.40 t/ha). The format is functional.
Data set [6] concerns Triticum aestivum. Kind of data set: Increase in winter Triticum aestivum (wheat) crop yield assessed as weight of 1000 grains at 900 g/ha applied at the end of tillering stage of crop measured at 4 weeks post-drug dosage (reference value: 37.79 g). It counts as functional.
The test system of data set [7] is Triticum aestivum. Kind of data set: Increase in winter Triticum aestivum (wheat) crop yield assessed as gluten content at 900 g/ha applied at the end of tillering stage of crop measured at 4 weeks post-drug dosage (reference value: 25.95%). It counts as functional.
Data set [8] has as its system Triticum aestivum. Put plainly: Increase in winter Triticum aestivum (wheat) crop yield assessed as protein content at 900 g/ha applied at the end of tillering stage of crop measured at 4 weeks post-drug dosage (reference value: 11.12%). It counts as functional.
The nature of data set [9]: Acute toxicity in po dosed Rattus norvegicus Wistar (rat). It counts as organism-based. To be noted: in vivo.
The subject of data set [10] is Viola arvensis. Kind of data set: Herbicidal activity against Viola arvensis measured at 4 weeks post-drug dosage. The format is functional, organism-based.
Data set [11] relates to Chenopodium album. Put plainly: Herbicidal activity against Chenopodium album measured at 4 weeks post-drug dosage. It counts as functional, organism-based.
The test system of data set [12] is Thlaspi arvense. Put plainly: Herbicidal activity against Thlaspi arvense measured at 4 weeks post-drug dosage. The format is functional, organism-based.
The subject of data set [13] is Euphorbia helioscopia. Kind of data set: Herbicidal activity against Euphorbia helioscopia measured at 4 weeks post-drug dosage. It counts as functional, organism-based.
Data set [14] concerns Myosotis arvensis. Kind of data set: Herbicidal activity against Myosotis arvensis measured at 4 weeks post-drug dosage. The format is functional, organism-based.
Data set [15] relates to Centaurea cyanus. Put plainly: Herbicidal activity against Centaurea cyanus measured at 4 weeks post-drug dosage. It counts as functional, organism-based.
Data set [16] relates to Triticum aestivum. Kind of data set: Reduction in Triticum aestivum (wheat) stem length applied at the end of tillering stage of crop measured at 4 weeks post-drug dosage. It counts as functional, organism-based.
In data set [17] the test system is Brassica napus. Put plainly: Herbicidal activity against Brassica napus (oilseed rape) measured at 4 weeks post-drug dosage. The format is functional, organism-based.
Data set [18] concerns Triticum aestivum. Kind of data set: Increase in winter Triticum aestivum (wheat) crop yield assessed as gluten content at 600 g/ha applied at the end of tillering stage of crop measured at 4 weeks post-drug dosage (reference value: 25.95%). The format is functional.
Data set [19] deals with Matricaria. Put plainly: Herbicidal activity against Matricaria inodora in winter wheat crop field at 600 g/ha applied at the end of tillering stage of crop measured at 4 weeks post-drug dosage. It counts as functional.
Data set [20] deals with Triticum aestivum. Kind of data set: Increase in winter Triticum aestivum (wheat) crop yield assessed as weight of 1000 grains at 600 g/ha applied at the end of tillering stage of crop measured at 4 weeks post-drug dosage (reference value: 37.79 g). The format is functional.
Data set [21] concerns Triticum aestivum. Put plainly: Increase in winter Triticum aestivum (wheat) crop yield assessed as protein content at 600 g/ha applied at the end of tillering stage of crop measured at 4 weeks post-drug dosage (reference value: 11.12%). It counts as functional.
The subject of data set [22] is Consolida regalis. Kind of data set: Herbicidal activity against Consolida regalis in winter wheat crop field at 600 g/ha applied at the end of tillering stage of crop measured at 4 weeks post-drug dosage. It counts as functional.
The test system of data set [23] is Thlaspi arvense. Put plainly: Herbicidal activity against Thlaspi arvense in winter wheat crop field at 600 g/ha applied at the end of tillering stage of crop measured at 4 weeks post-drug dosage. It counts as functional.
Data set [24] deals with Triticum aestivum. Kind of data set: Increase in winter Triticum aestivum (wheat) crop yield at 600 g/ha applied at the end of tillering stage of crop measured at 4 weeks post-drug dosage (reference value: 7.40 t/ha). The format is functional.
In data set [25] the test system is Brassica napus. Kind of data set: Herbicidal activity against Brassica napus (oilseed rape) in winter wheat crop field at 600 g/ha applied at the end of tillering stage of crop measured at 4 weeks post-drug dosage. It counts as functional.

SMILES strings stand for the structures. Active and inactive are the calls of the source. The rule behind the calls is not given here.

Turning to `Cc1cc(Cl)ccc1OCC(=O)[O-].[Na+]`, the Activity amounted to 100% in data set [1]; 56% in data set [2]; 100% in data set [3]; 96% in [4]; 39.3 g in [6]; 27.33% in [7]. In addition, the Activity in [8] stood at 11.08%. Also, the Crop_yield in data set [5] was found to be 7.81 tons/ha.

As to `CCCCCCCCCC[N+](C)(C)CCCCCCCCCC.Cc1cc(Cl)ccc1OCC(=O)[O-]`, the LD50 (in general, the dose at which mortality reaches 50%) in data set [9] is 300 mg/kg.

As to `Cc1cc(Cl)ccc1OCC(=O)O` [METAXON], the LD50 in [9] amounted to 962 mg/kg.

On to `C[N+](C)(C)CCl.Cc1cc(Cl)ccc1OCC(=O)[O-]` [listing 1 of 2 here], for which the outcome in data set [10], in data set [11], in data set [12], in data set [13], in data set [14] and in [15] was Active. Further, in data set [17], the result was Active. Besides, the inhibition entry in data set [16] is “Active”.

The compound `C[N+](C)(C)CCl.Cc1cc(Cl)ccc1OCC(=O)[O-]` [listing 2 of 2 here] displayed an LD50 in [9] of 300 mg/kg.

In [9], `C[N+](C)(C)CCCl.[Cl-]` [CHLORMEQUAT CHLORIDE] showed an LD50 of 1300 mg/kg.

For `CCCCC(CC)OC(=O)COc1ccc(Cl)cc1C` (centres undefined), the Activity is 27.12% in data set [18]; 62% in data set [19]; 39.78 g in [20]; 11.03% in [21]; 95% in data set [22]; 100% in [23]. The compound further showed an Activity in data set [25] of 100%. In data set [9], this compound showed an LD50 of 1300 mg/kg. This compound showed a Crop_yield in data set [24] of 7.8 tons/ha.

Source of the values: ChEMBL document CHEMBL3046723, “Ionic liquids with herbicidal anions” (Tetrahedron, 2011).
